Test results from patent publication US10343992B2, “1-cyano-pyrrolidine compounds as USP30 inhibitors” (MISSION THERAPEUTICS LIMITED, priority 2015, dated 2019).
pIC50: −log10 of the molar value.

What follows are molecules tested against USP30 (Homo sapiens (Human), UniProt Q70CQ3) (assay: USP30 biochemical FP or FI IC50 assay). Details: read-out: IC50 range.
Chain of USP30 (Q70CQ3 57-517): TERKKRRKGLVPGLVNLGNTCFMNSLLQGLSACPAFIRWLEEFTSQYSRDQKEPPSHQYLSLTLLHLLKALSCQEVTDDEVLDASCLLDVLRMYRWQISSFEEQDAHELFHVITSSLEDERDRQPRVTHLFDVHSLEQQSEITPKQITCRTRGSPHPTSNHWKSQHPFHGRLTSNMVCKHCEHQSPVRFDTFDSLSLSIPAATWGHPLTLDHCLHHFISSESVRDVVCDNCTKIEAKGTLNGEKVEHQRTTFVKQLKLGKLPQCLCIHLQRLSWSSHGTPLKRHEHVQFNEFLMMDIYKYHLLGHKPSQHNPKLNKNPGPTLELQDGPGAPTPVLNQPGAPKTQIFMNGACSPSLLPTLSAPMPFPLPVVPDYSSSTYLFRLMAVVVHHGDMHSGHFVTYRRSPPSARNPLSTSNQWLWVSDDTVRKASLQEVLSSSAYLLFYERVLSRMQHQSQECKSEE
Experimental: USP30 Biochemical IC50 Assay
Dilution plates were prepared at 21 times the final concentration (2100 μM for a final concentration of 100 μM) in 50% DMSO in a 96-well polypropylene V-bottom plate (Greiner #651201). A typical 8-point dilution series would be 100, 30, 10, 3, 1, 0.3, 0.1, 0.03 μM final. Reactions were performed in duplicate in black 384 well plates (small volume, Greiner 784076) in a final reaction volume of 21 μl. Either 1 μl of 50% DMSO or diluted compound was added to the plate. USP30 was diluted in reaction buffer (40 mM Tris, pH 7.5, 0.005% Tween 20, 0.5 mg/ml BSA, 5 mM—beta-mercaptoethanol) to the equivalent of 0.05 μl/well and 10 μl of diluted USP30 was added to the compound. Enzyme and compound were incubated for 30 min at room temp. Reactions were initiated by the addition of 50 nM of TAMRA labelled peptide linked to ubiquitin via an iso-peptide bond as fluorescence polarisation substrate. Reactions were read immediately after addition of substrate and following a 2 hr incubation at room temperature. Readings were performed on a Pherastar Plus (BMG Labtech). λ Excitation 540 nm; λ Emission 590 nm.
USP30 Biochemical Fluorescence Intensity IC50 Assay
Dilution plates were prepared at 21 times the final concentration (2100 μM for a final concentration of 100 μM) in 50% DMSO in a 96-well polypropylene V-bottom plate (Greiner #651201). A typical 8-point dilution series would be 100, 30, 10, 3, 1, 0.3, 0.1, 0.03 μM final. Reactions were performed in duplicate in black 384 well plates (small volume, Greiner 784076) in a final reaction volume of 21 μl.
Either 1 μl of 50% DMSO or diluted compound was added to the plate. USP30 was diluted in reaction buffer (40 mM Tris, pH 7.5, 0.005% Tween 20, 0.5 mg/ml BSA, 5 mM—beta-mercaptoethanol) to the equivalent of 0.001 μl/well and 10 μl of diluted USP30 was added to the compound. Enzyme and compound were incubated for 30 min at room temp. Reactions were initiated by the addition of Ubiquitin-Rhodamine 110 (U-555; Boston Biochem) at a final concentration of 100 nM. Reactions were read immediately after addition of substrate and following a 2 h incubation at room temperature. Readings were performed on a Pherastar Plus (BMG Labtech). λ Excitation 487 nm; λ Emission 535 nm.
In the case of `Cn1cc(-c2ccc(C(=O)N[C@@H]3CCN(C#N)C3)cc2)cn1` [Example 44, (R)-N-(1-cyanopyrrolidin-3-yl)-4-(1-methyl-1H-pyrazol-4-yl)benzamide], the pIC50 was > 7.00.
Work on “(3aR,6aR)-1-(indoline-1-carbonyl)hexahydropyrrolo[3,4-b]pyrrole-5(1H)-carbonitrile [Example 269]” yielded a pIC50 of 5.00 to 6.00.
For `N#CN1CC[C@@H](NC(=O)c2ccc(N3CCOCC3)nc2)C1` [Example 99, (R)-N-(1-cyanopyrrolidin-3-yl)-6-morpholinonicotinamide], the pIC50 was 6.00 to 7.00.
`CO[C@@H]1CCN(c2ccc(C(=O)N[C@@H]3CCN(C#N)C3)c(F)c2)C1` [Example 146, N-((R)-1-cyanopyrrolidin-3-yl)-2-fluoro-4-((R)-3-methoxypyrrolidin-1-yl)benzamide] gave a pIC50 of 6.00 to 7.00.
`N#CN1CC[C@@H](NC(=O)c2ncc(-c3ccc(F)cc3)cc2Cl)C1` [Example 123, (R)-3-chloro-N-(1-cyanopyrrolidin-3-yl)-5-(4-fluorophenyl)picolinamide] was tested, and the pIC50 was > 7.00.
`Cn1cc(-c2ccn3c(C(=O)N[C@@H]4CCN(C#N)C4)cnc3c2)cn1` [Example 159, (R)-N-(1-cyanopyrrolidin-3-yl)-7-(1-methyl-1H-pyrazol-4-yl)imidazo[1,2-a]pyridine-3-carboxamide] showed a pIC50 of 6.00 to 7.00.
`Cn1cc(-c2ccc3cc(C(=O)N[C@@H]4CCN(C#N)C4)[nH]c3c2)cn1` [Example 84, (R)-N-(1-cyanopyrrolidin-3-yl)-6-(1-methyl-1H-pyrazol-4-yl)-1H-indole-2-carboxamide] gave a pIC50 of 6.00 to 7.00.
`Cn1cc(-c2ccc(C(=O)N[C@@H]3CCN(C#N)C3)cn2)cn1` [Example 111, (R)-N-(1-cyanopyrrolidin-3-yl)-6-(1-methyl-1H-pyrazol-4-yl)nicotinamide] gave a pIC50 of 6.00 to 7.00.
With `N#CN1C[C@H]2CCN(C(=O)Nc3cc(C(F)(F)F)ccc3F)[C@H]2C1` [Example 201, (3aR,6aR)-5-cyano-N-(2-fluoro-5-(trifluoromethyl)phenyl)hexahydro-pyrrolo[3,4-b]pyrrole-1(2H)-carboxamide] the pIC50 was > 7.00.
With `N#CN1CC[C@@H](NC(=O)N2CC(c3cccc(Cl)c3)C2)C1` [Example 192, (R)-3-(3-chlorophenyl)-N-(1-cyanopyrrolidin-3-yl)azetidine-1-carboxamide] the pIC50 was > 7.00.
`CN(C(=O)Nc1ccc(Cl)cn1)[C@@H]1CCN(C#N)C1` [Example 267, (R)-3-(5-chloropyridin-2-yl)-1-(1-cyanopyrrolidin-3-yl)-1-methylurea] showed a pIC50 of 6.00 to 7.00.
With `C[C@@H]1CN(c2cc(C(=O)N[C@@H]3CCN(C#N)C3)c(F)cn2)C[C@H](C)O1` [Example 140, N-((R)-1-cyanopyrrolidin-3-yl)-2-((2S,6R)-2,6-dimethylmorpholino)-5-fluoroisonicotinamide] the pIC50 was 6.00 to 7.00.
`Cn1cc(-c2cc(F)c(C(=O)N[C@@H]3CCN(C#N)C3)c(F)c2)cn1` [Example 113, (R)-N-(1-cyanopyrrolidin-3-yl)-2,6-difluoro-4-(1-methyl-1H-pyrazol-4-yl)benzamide] showed a pIC50 of 6.00 to 7.00.
`N#CN1CC[C@@H](NC(=O)N2CC(OCc3ccccc3)(c3ccccc3)C2)C1` [Example 238, (R)-3-(benzyloxy)-N-(1-cyanopyrrolidin-3-yl)-3-phenylazetidine-1-carboxamide] was tested, and the pIC50 was > 7.00.
`CC(=O)N1CCCN(c2cc(C(=O)NC3CCN(C#N)C3)ccn2)CC1` (racemic) [Example 28, 2-(4-acetyl-1,4-diazepan-1-yl)-N-(1-cyanopyrrolidin-3-yl)isonicotinamide] gave a pIC50 of 5.00 to 6.00.
In the case of `Cn1cc(-c2cc(F)c(C(=O)N[C@@H]3CCN(C#N)C3)cc2F)cn1` [Example 78, (R)-N-(1-cyanopyrrolidin-3-yl)-2,5-difluoro-4-(1-methyl-1H-pyrazol-4-yl)benzamide], the pIC50 was > 7.00.
For `COc1cc(C(=O)N[C@@H]2CCN(C#N)C2)ccc1-c1ccnc(C)c1` [Example 40, (R)-N-(1-cyanopyrrolidin-3-yl)-3-methoxy-4-(2-methylpyridin-4-yl)benzamide], the pIC50 was > 7.00.
`CCN(C(=O)c1cnc2cc(-c3ccnc(C)c3)ccn12)[C@@H]1CCN(C#N)C1` [Example 165, (R)-N-(1-cyanopyrrolidin-3-yl)-N-ethyl-7-(2-methylpyridin-4-yl)imidazo[1,2-a]pyridine-3-carboxamide] gave a pIC50 of 6.00 to 7.00.
`CN(C(=O)c1ccc(-c2cnn(C)c2)c(F)c1)[C@@H]1CCN(C#N)C1` [Example 87, (R)-N-(1-cyanopyrrolidin-3-yl)-3-fluoro-N-methyl-4-(1-methyl-1H-pyrazol-4-yl)benzamide] was tested, and the pIC50 was 6.00 to 7.00.
With `COc1ccccc1-c1cc(C(=O)N[C@@H]2CCN(C#N)C2)n[nH]1` [Example 97, (R)-N-(1-cyanopyrrolidin-3-yl)-5-(2-methoxyphenyl)-1H-pyrazole-3-carboxamide] the pIC50 was > 7.00.
Molecule `N#CN1C[C@H]2CCN(C(=O)c3cn(-c4ccccc4)cn3)[C@H]2C1` (racemic) [Example 54, rac-(3aR,6aR)-1-(1-phenyl-1H-imidazole-4-carbonyl)hexahydropyrrolo[3,4-b]pyrrole-5(1H)-carbonitrile] has a pIC50 of 6.00 to 7.00.
With `C[C@H]1CN(C#N)C[C@@H]1NC(=O)c1ccc(N2CCOCC2)c(Cl)c1` (racemic) [Example 175, 3-chloro-N-((trans)-1-cyano-4-methylpyrrolidin-3-yl)-4-morpholinobenzamide] the pIC50 was > 7.00.
With `Cn1cc(-c2ccc3c(c2)c(F)c(C(=O)N[C@@H]2CCN(C#N)C2)n3C)cn1` [Example 232, (R)-N-(1-cyanopyrrolidin-3-yl)-3-fluoro-1-methyl-5-(1-methyl-1H-pyrazol-4-yl)-1H-indole-2-carboxamide] the pIC50 was > 7.00.
For `N#CN1CC[C@@H](NC(=O)c2ccc(-c3cnc4nccn4c3)cc2F)C1` [Example 109, (R)-N-(1-cyanopyrrolidin-3-yl)-2-fluoro-4-(imidazo[1,2-a]pyrimidin-6-yl)benzamide], the pIC50 was 6.00 to 7.00.
`N#CN1CC[C@@H](NC(=O)c2ncc(-c3ccccc3)cn2)C1` [Example 63, (R)—N-(1-cyanopyrrolidin-3-yl)-5-phenylpyrimidine-2-carboxamide] was tested, and the pIC50 was 6.00 to 7.00.
`COC1(c2ccccc2)CN(C(=O)N[C@@H]2CCN(C#N)C2)C1` [Example 188, (R)-N-(1-cyanopyrrolidin-3-yl)-3-methoxy-3-phenylazetidine-1-carboxamide] showed a pIC50 of 6.00 to 7.00.
With `Cc1ncc(F)c(-c2ccc(C(=O)N[C@@H]3CCN(C#N)C3)c(F)c2)n1` [Example 182, (R)-N-(1-cyanopyrrolidin-3-yl)-2-fluoro-4-(5-fluoro-2-methylpyrimidin-4-yl)benzamide] the pIC50 was > 7.00.
Molecule `N#CN1CC[C@@H](NC(=O)N2CCCN(Cc3ccccc3)CC2)C1` [Example 138, (R)-4-benzyl-N-(1-cyanopyrrolidin-3-yl)-1,4-diazepane-1-carboxamide] has a pIC50 of 6.00 to 7.00.
For `COc1cc(C(=O)N2CC[C@@H]3CN(C#N)C[C@@H]32)ccc1-c1ccncc1Cl` (racemic) [Example 59, rac-(3aR,6aR)-1-(4-(3-chloropyridin-4-yl)-3-methoxybenzoyl)hexahydropyrrolo[3,4-b]pyrrole-5(1H)-carbonitrile], the pIC50 was 6.00 to 7.00.
`N#CN1CCC(NC(=O)C2CC(=O)N(Cc3ccc(F)cc3F)C2)C1` (racemic) [Example 10, N-(1-cyanopyrrolidin-3-yl)-1-(2,4-difluorobenzyl)-5-oxopyrrolidine-3-carboxamide] showed a pIC50 of 6.00 to 7.00.
`N#CN1CCC(NC(=O)Nc2cccc(Cc3ccccc3)c2)C1` (centres unmarked) [Example 253, 1-(3-benzylphenyl)-3-(1-cyanopyrrolidin-3-yl)urea] was tested, and the pIC50 was 6.00 to 7.00.
With `N#CN1CC[C@@H](NC(=O)c2ccc(-c3cn[nH]c3C(F)(F)F)cc2F)C1` [Example 85, (R)-N-(1-cyanopyrrolidin-3-yl)-2-fluoro-4-(5-(trifluoromethyl)-1H-pyrazol-4-yl)benzamide] the pIC50 was > 7.00.
Work on `Cn1cc(-c2ccc3nc(C(=O)N[C@@H]4CCN(C#N)C4)cn3c2)cn1` [Example 124, (R)-N-(1-cyanopyrrolidin-3-yl)-6-(1-methyl-1H-pyrazol-4-yl)imidazo[1,2-a]pyridine-2-carboxamide] yielded a pIC50 of 6.00 to 7.00.
Molecule `Cn1cc(-c2cc(C(=O)N[C@@H]3CCN(C#N)C3)ccc2F)cn1` [Example 43, (R)-N-(1-cyanopyrrolidin-3-yl)-4-fluoro-3-(1-methyl-1H-pyrazol-4-yl)benzamide] has a pIC50 of 6.00 to 7.00.
`C[C@@H]1CN(c2ccc(C(=O)N[C@@H]3CCN(C#N)C3)cc2F)C[C@H](C)O1` [Example 6, N—((R)-1-cyanopyrrolidin-3-yl)-4-((cis)-2,6-dimethylmorpholino)-3-fluorobenzamide] was tested, and the pIC50 was 6.00 to 7.00.
